One data set relates to LSEC CXCL expression. As to the kind of experiment: CXCL expression (qPCR) in LSECs pretreated with inhibitor, with or without TNFα stimulation. It is filed as cell-based, human.
The subject of another data set is LSECs. Kind of data set: iBET151 LSEC cytotoxicity assay (IncuCyte). The format is cell-based, human. Conditions: iBET151 and/or TNFα, ~30 minute intervals for 10 hours, FIG. 22. The procedure: FIG. 22: iBET151 LSEC cytotoxicity assay. IncuCyte system was utilized to image cells and assess for cytotoxicity. Dying cells (black arrows) are stained green by fluorescent dye, and green cells are counted for each low power image field. Cells were pretreated with control medium or iBET151 and/or TNFα, and quantification for the percentage of dead cells was done at ˜30 minutes intervals for 10 hours starting at 15 minutes. Images shown were acquired after 4 hours of incubation. […] Error bars indicate SD, n=3.

The next data set concerns the target T1, BRD4 (Homo sapiens, UniProt O60885).
T1 construct: Soluble chromatin was aliquoted and immunoprecipitated with magnetic beads with antibodies for BRD4 (Abcam ab128874); host or cells: primary human liver sinusoidal endothelial cells (LSECs)
Kind of data set: ChIP-qPCR for BRD4 binding at CXCL super enhancer and CXCL1 promoter sites in LSECs. It is filed as cell-based. The settings on record: with and without TNFα, after inhibitor pretreatment, FIG. 20B, 20E.

The test system of the next data set is NF-κB. As to the kind of experiment: ChIP-qPCR for NF-κB binding at CXCL super enhancer and CXCL1 promoter sites in LSECs. The settings on record: with and without TNFα, after inhibitor pretreatment, FIG. 20C, 20D. The format is cell-based, human. As to the method: FIG. 20: Bromodomain inhibitors suppress expression of CXCLs by inhibition of transcription factor binding at CXCL super enhancer and promoter sites. A) LSECs were pretreated with iBET151 ([…]) (n=4). CXCL1, 6, and 8 expression levels were assessed by qPCR. Expression levels were normalized to basal condition and log10 fold change values were plotted. One-way matched-pairs ANOVA analysis was performed with Post-hoc Dunnett's multiple comparison correction. B and C) ChIP-qPCR assays for BRD4 binding (B) or NF-κB binding (C) with and without TNFα stimulation was assessed at CXCL super-enhancer and CXCL1 promoter sites after pretreatment with iBET151. D and E) Same experiments were repeated with Celastrol. Enrichment for either CXCL1 promoter (Promoter) or CXCL super enhancer (Super Enhancer) sequence was examined. Sequence enrichment was normalized to input. Box plots show […] quartiles and third quartiles; whiskers show maximum and minimum values. Two-way matched-pairs ANOVA was performed on log-transformed input percentage, with Post-hoc Sidak's multiple comparisons correction (n=3).
LSECs were treated with appropriate conditions as outlined separately, and underwent CHIP according to Millipore High-Sens ChIP kit (Millipore MAGNA0025) manufacture protocols. […]
In general terms: Quantitative PCR measures a nucleic acid by following its amplification.

Data set [1] concerns alcohol fed/LPS C57BL/6 mice. As to the kind of experiment: Murine chronic alcohol feeding/LPS model with iBET151. It is filed as in vivo, mouse. The procedure:
FIG. 23: Bromodomain Inhibitor iBET151 Attenuates Liver CXCL Production and Neutrophil Infiltration in a Murine Alcohol Feeding/LPS Model. A) Schematic of alcohol feeding protocol. Mice were fed 5% alcohol diet or pair-fed control diet for 10 days. A subset of mice also received IP injection of iBET151 compound. Alcohol fed mice also received IP injection of LPS on day 11, 8 hours before sacrifice (n=6-8 in pair-fed groups, n=12-14 in alcohol fed groups). […] This response was attenuated by iBET151 injections. Expression levels were normalized to average expression of pair-fed control mice. C) IHC for MPO (neutrophil marker) is shown, with number of neutrophils per low power fields on y-axis. […] For all analysis, two-way ANOVA was performed on normalized expression values for qPCRs or cell counts for IHC staining or ALT values, with Post-hoc Tukey's multiple comparisons correction.
WT C57BL/6 mice (10-12 weeks) were purchased from Envigo Laboratories. Mice were subjected to chronic alcohol feeding to induce alcohol-induced liver injury with modification to the NIAAA model (see, e.g., Kong et al., Sci. Rep., 7(1):9292 (2017)). Briefly, mice were acclimated to liquid diet for 5 days, and were fed either 5% alcohol containing liquid diet or isocaloric pair-fed control diet. On Day 11, LPS (Invivogen tlrl-eblps) was intraperitoneally (IP) injected at 4 mg/kg to alcohol-fed mice. PBS of the same volume was given to pair-fed mice. All mice were sacrificed 8 hours later. A subset of mice, concurrent with alcohol or pair-feeding, was given injection of iBET151 daily. Mice were injected IP with iBET151 (6 mg/kg) in 10% Kleptose 2% DMSO solution or equal volume of carrier solution. On Day 11, drug or vehicle was administered 1 hour before LPS injection.
To generate an in vivo model with more exaggerated inflammation that could simulate human AH, a protocol of the chronic alcohol feeding model was modified by substituting the alcohol binge with a single LPS injection (FIG. 23A; see, also, Kong et al., Sci. Rep., 7(1):9292 (2017)). […] There was a significant increase in serum alanine aminotransferase (ALT) in alcohol fed/LPS mice (FIG. 23D). To assess the role of super enhancer activation in alcohol fed/LPS induced liver inflammation, the pan-BET inhibitor iBET151 was given to mice as daily IP injections alongside alcohol feeding or LPS injection.

In data set [2] the test system is BET proteins (BRD2, 3, 4 and T). Conditions: Seal et al., Bioorg. Med. Chem. Lett. 2012; cited from earlier work.
Data set [3] relates to S1P receptors on primary human macrophages. As to the kind of experiment: EV-activated macrophage inflammation (AH EVs on PBMC-derived macrophages). The format is cell-based. The procedure: FIG. 14: EV-activated macrophage inflammation is SIP-dependent. A) TNF-α and B) IL-1β responses in primary human macrophages from AH subjects treated with EVs derived from HD (HD EV) or AH (AH EV) for 4 hours showing a significant increase in both cytokines by AH-EVs.
PBMC-derived macrophages were treated with EVs derived from HD or AH subjects.

A further data set concerns HepG2Cyp2E1 cells. As to the kind of experiment: Ethanol-induced EV release from HepG2Cyp2E1 cells (UTC isolation, NTA count). It is filed as cell-based, human. The settings on record: HepG2Cyp2E1 cells pretreated with IL-22 prior to ethanol. The text has this:
(§1) IL-22 is being investigated as a potential therapy in AH due to its hepatoprotective effects. To investigate if IL-22 can inhibit ethanol-induced EV release, HepG2Cyp2E1 (human hepatoma cells that can metabolize ethanol due to the enforced expression of cytochrome P450 2E1) cells were pretreated with IL-22 prior to the addition of ethanol. Subsequently, EVs were isolated from cell culture supernatants by UTC and quantified with NTA. Similarly, IL-22 reduced EV counts in AH patients after treatment.

Another data set deals with AH patients. As to the kind of experiment: EV counts in AH patients after IL-22 treatment. The format is in vivo, human.
Description: as §1

Setting [4] is: alcohol fed/LPS mice, iBET151 6 mg/kg IP daily, FIG. 23B.

Entries after “also recorded” stand apart in the source; their conditions may differ.

Description for BRD4: B and C) ChIP-qPCR assays for BRD4 binding (B) or NF-κB binding (C) with and without TNFα stimulation was assessed at CXCL super-enhancer and CXCL1 promoter sites after pretreatment with iBET151. D and E) Same experiments were repeated with Celastrol. Enrichment for either CXCL1 promoter (Promoter) or CXCL super enhancer (Super Enhancer) sequence was examined. Sequence enrichment was normalized to input. Box plots show top quartiles and third quartiles; whiskers show maximum and minimum values. Two-way matched-pairs ANOVA was performed on log-transformed input percentage, with Post-hoc Sidak's multiple comparisons correction (n=3).
LSECs were treated with appropriate conditions as outlined separately, and underwent CHIP according to Millipore High-Sens ChIP kit (Millipore MAGNA0025) manufacture protocols. Briefly, cells were crosslinked with formaldehyde (1% final concentration) followed by glycine treatment (100 mM) for 5 minutes each. Cells were washed, collected, and pelleted with centrifugation, and were then lysed with cell lysis buffer. Cells were repelleted and underwent nuclear lysis with provided nuclear lysis buffer, and DNA was sheared with ultrasonification. Soluble chromatin was aliquoted and immunoprecipitated with magnetic beads with antibodies for BRD4 (Abcam ab128874), NF-κB (Cell signaling 8242S), or H3K9me3 (Abcam ab8898) with appropriate isotype controls. […]
Description for LSEC CXCL expression: A) LSECs were pretreated with iBET151 (0-50 M) (n=4). CXCL1, 6, and 8 expression levels were assessed by qPCR. Expression levels were normalized to basal condition and log10 fold change values were plotted. One-way matched-pairs ANOVA analysis was performed with Post-hoc Dunnett's multiple comparison correction.
LSECs were pretreated with iBET151 (0-50 M) (n=4). CXCL2, 3, and 5 expression levels were assessed by qPCR. Expression levels were normalized to basal condition and log10 fold change values were plotted. One-way matched-pairs ANOVA analysis was performed with Post-hoc Dunnett's multiple comparison correction. Error bars indicate SD.
Primary human LSECs were purchased from ScienCell (Cat #5000) and cultured using standard cell culture techniques. Where appropriate, LSECs underwent TNFα (Peprotech, 300-01A) stimulation at 20 ng/mL. For experiments with BRD4 inhibitor, iBET151 (Cayman Chemical 11181), low passage LSECs were plated at 70% confluency and cultured overnight. Next, LSECs were serum starved for 2 hours in low serum medium (0.5% FBS in basal endothelial medium (Lonza CC-3121)). Inhibitors were added at concentrations indicated to low-serum medium, and cells were incubated in inhibitor containing medium for 2 hours. After inhibitor treatment, medium change was performed with TNFα (Peprotech 300-01A) at 20 ng/mL or control low-serum medium for 90 minutes incubation. LSECs were then collected for analysis. […] RNA was extracted and qPCR performed for expression of CXCLs.

Turning to `COc1cc2c(cc1-c1c(C)noc1C)ncc1[nH]c(=O)n([C@H](C)c3ccccn3)c12` [iBET151], the “CXCL expression after TNFα stimulation” value with LSEC CXCL expression (HHSEC pretreated with varying amounts of iBET151, FIG. 18) is recorded as “suppresses”. Also, the “CXCL2, 3, 5 expression (qPCR)” value in the data set with LSEC CXCL expression (LSECs pretreated with iBET151 (0-50 M), with TNFα and without TNFα, FIG. 21) was “linear trend for decreasing”. For the same molecule, the “LSEC CXCL expression” value in the data set with LSEC CXCL expression (in vitro, in the presence of iBET151, FIG. 20A, 21A, iBET151 0-50 M, TNFα 20 ng/mL) is on record as “significantly decreased”. Moreover, in the data set with LSECs, the “cytotoxicity (percentage of dead cells)” value was “without significant cytotoxicity; also recorded: no significant difference among treatment groups”. Further, on BRD4, the “BRD4 occupancy/binding at CXCL super enhancer and CXCL1 promoter sites (ChIP)” value is on record as “inhibitory effect”. Also, the “NF-κB binding at CXCL super enhancer and CXCL1 promoter sites (ChIP)” value with NF-κB is on record as “trend for decreased”. For the same molecule, the “cleaved caspase 3 level in liver (Western blot)” value in [1] (alcohol fed/LPS mice given iBET151, FIG. 26A) is recorded as “decrease; also recorded: attenuated”. Besides, in data set [1] (setting [4]), the “hepatic expression of Cxcl1 (qPCR)” value was “significantly decreased” and the “hepatic expression of Cxcl2 (qPCR)” value is “significantly decreased”. Besides, the “neutrophil infiltration of the liver (Ly6g expression, MPO IHC)” value in data set [1] (alcohol fed/LPS mice, iBET151 6 mg/kg IP daily, FIG. 23B, 23C) was “decreased”. Moreover, the “steatosis (BODIPY 493/503 stain)” value in data set [1] (alcohol fed/LPS mice, iBET151 6 mg/kg IP daily, FIG. 25, 6 mg/kg) is given as “decreased; also recorded: attenuated”. In addition, in data set [1] (alcohol feeding and LPS injection, IP iBET151, figure legends FIG. 19, FIG. 23B), the “liver CXCL chemokine production/elevation (qPCR)” value is “attenuated”. Besides, the “neutrophil marker Ly6g (qPCR)” value in [1] (alcohol/LPS mice, IP iBET151, figure legends FIG. 19, FIG. 23B) is reported as “reduced; also recorded: attenuated”. For the same molecule, the “Malondialdehyde (MDA), lipid peroxidation, in mice livers” value in data set [1] (pair-fed or EtOH+LPS, vehicle or iBET151, FIG. 26B) is recorded as “no difference among treatment groups”. In addition, the “8-Hydroxy-2′-deoxyguanosine (8-OHdG), DNA oxidation, in mice livers” value in [1] (pair-fed or EtOH+LPS, vehicle or iBET151, FIG. 26C) is “no difference among treatment groups”. Besides, the “activity against both bromodomains (BD) of all four BET proteins” value in [2] was “highly specific activity”.

Regarding `CCCCCCCCc1ccc(CCC(N)(CO)CO)cc1` [FTY720], the “AH EV-activated proinflammatory signaling in macrophages” value in data set [3] (PBMC-derived macrophages treated with AH EVs) is “significantly inhibited”. The “TNF-α response to AH EVs” value in data set [3] (primary human macrophages from AH subjects, EVs for 4 hours, FTY 720 1 μM, FIG. 14A) is recorded as “significantly reduced”. Further, in data set [3] (primary human macrophages from AH subjects, EVs for 4 hours, FTY 720 1 μM, FIG. 14B), the “IL-1β response to AH EVs” value was “significantly reduced”.

B1: IL-22: IL-22 polypeptide, hepatoprotective cytokine investigated as potential therapy in AH (protein, UniProt Q9GZX6 34-179, looked up)
Interleukin-22: APISSHCRLDKSNFQQPYITNRTFMLAKEASLADNNTDVRLIGEKLFHGVSMSERCYLMKQVLNFTLEEVLFPQSDRFQPYMQEVVPFLARLSNRLSTCHIEGDDLHIQRNVQKLKDTVKKLGESGEIKAIGELDLLFMSLRNACI
Regarding B1, the “ethanol-induced EV release” value in the data set on HepG2Cyp2E1 cells is recorded as “significantly inhibited”. The “EV counts in AH patients” value in the data set with AH patients is “reduced”.
